# According to US9096560B2, “5-heterocyclylalkyl-3-hydroxy-2-phenylcyclopent-2-enones as herbicides” (Syngenta Limited, priority 2008, dated 2015):
# Key:
# Format in all cases: in vivo
# Lolium perenne (LOLPE) [1] = assay: Example B pre-emergence herbicidal test, LOLPE; conditions: Lolium perenne, 312 h, rate 250 g/ha, evaluated after 13 days, 100=total damage to plant, 0=no damage to plant
# Procedure, shortened: (§1)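 After sowing in standard soil, pots spent a day in the glasshouse (24/16° C, 14 h photoperiod, 65% humidity) before spraying with compound in acetone/water 50:50 with 0.5% Tween 20. Watering followed twice a day, and plants were evaluated 13 days on, with 100 meaning complete damage.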
# [2] = tested on: Alopecurus myosuroides (ALOMY); assay: Example B pre-emergence herbicidal test, ALOMY; conditions: Alopecurus myosuroides, 312 h, rate 250 g/ha, evaluated after 13 days, 100=total damage to plant, 0=no damage to plant
# Procedure, shortened: as §1
# [3] = tested on: Echinochloa crus-galli (ECHCG); assay: Example B pre-emergence herbicidal test, ECHCG; conditions: Echinochloa crus-galli, 312 h, rate 250 g/ha, evaluated after 13 days, 100=total damage to plant, 0=no damage to plant
# Procedure, shortened: as §1
# Avena fatua (AVEFA) [4] = assay: Example B pre-emergence herbicidal test, AVEFA; conditions: Avena fatua, 312 h, rate 250 g/ha, evaluated after 13 days, 100=total damage to plant, 0=no damage to plant
# Procedure, shortened: as §1
# Lolium perenne (LOLPE) [5] = assay: Example B post-emergence herbicidal test, LOLPE; conditions: Lolium perenne, 312 h, rate 250 g/ha, evaluated after 13 days, scale 0-100, read-out: Post-emergence activity LOLPE (100=total damage to plant; 0=no damage to plant)
# Procedure, shortened: (§2)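 Plants grown 8 days in glasshouse (24/16 °C day/night, 14 h light, 65% humidity), then sprayed with aqueous solution from acetone/water (50:50) formulation with 0.5% Tween 20. Damage scored 13 days later on a 0–100 scale (100 = total damage).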
# [6] = tested on: Alopecurus myosuroides (ALOMY); assay: Example B post-emergence herbicidal test, ALOMY; conditions: Alopecurus myosuroides, 312 h, rate 250 g/ha, evaluated after 13 days, scale 0-100, read-out: Post-emergence activity ALOMY (100=total damage to plant; 0=no damage to plant)
# Procedure, shortened: as §2
# [7] = tested on: Echinochloa crus-galli (ECHCG); assay: Example B post-emergence herbicidal test, ECHCG; conditions: Echinochloa crus-galli, 312 h, rate 250 g/ha, evaluated after 13 days, scale 0-100, read-out: Post-emergence activity ECHCG (100=total damage to plant; 0=no damage to plant)
# Procedure, shortened: as §2
# Avena fatua (AVEFA) [8] = assay: Example B post-emergence herbicidal test, AVEFA; conditions: Avena fatua, 312 h, rate 250 g/ha, evaluated after 13 days, scale 0-100, read-out: Post-emergence activity AVEFA (100=total damage to plant; 0=no damage to plant)
# Procedure, shortened: as §2
compound,measurement,setting,value
Cc1cc(C)c(C2C(=O)CC(CC3CCN(C(=O)c4ccc(Cl)cc4Cl)CC3)C2=O)c(C)c1 (stereo not shown) [Compound T71],pest or weed control at 250 g/ha,Lolium perenne (LOLPE) [1],30%
same,pest or weed control at 250 g/ha,[2],20%
same,pest or weed control at 250 g/ha,[3],10%
same,pest or weed control at 250 g/ha,Avena fatua (AVEFA) [4],20%
same,pest or weed control at 250 g/ha,Lolium perenne (LOLPE) [5],40%
same,pest or weed control at 250 g/ha,[6],30%
same,pest or weed control at 250 g/ha,[7],70%
same,pest or weed control at 250 g/ha,Avena fatua (AVEFA) [8],80%
Cc1cc(C)c(C2C(=O)CC(CC3CCN(C(=O)c4c(C)noc4C)CC3)C2=O)c(C)c1 (stereo not shown) [Compound T118],pest or weed control at 250 g/ha,Lolium perenne (LOLPE) [1],40%
same,pest or weed control at 250 g/ha,[2],40%
same,pest or weed control at 250 g/ha,[3],30%
same,pest or weed control at 250 g/ha,Avena fatua (AVEFA) [4],20%
same,pest or weed control at 250 g/ha,Lolium perenne (LOLPE) [5],30%
same,pest or weed control at 250 g/ha,[6],60%
same,pest or weed control at 250 g/ha,[7],40%
same,pest or weed control at 250 g/ha,Avena fatua (AVEFA) [8],80%
CC(=O)OC1=C(c2c(C)cc(C)cc2C)C(=O)/C(=C/C2CCN(C(C)=O)C2)C1 (stereo not shown) [Compound P42],pest or weed control at 250 g/ha,Lolium perenne (LOLPE) [1],40%
same,pest or weed control at 250 g/ha,[2],30%
same,pest or weed control at 250 g/ha,[3],30%
same,pest or weed control at 250 g/ha,Avena fatua (AVEFA) [4],0%
same,pest or weed control at 250 g/ha,Lolium perenne (LOLPE) [5],40%
same,pest or weed control at 250 g/ha,[6],60%
same,pest or weed control at 250 g/ha,[7],70%
same,pest or weed control at 250 g/ha,Avena fatua (AVEFA) [8],70%
Cc1cc(C)c(C2C(=O)CC(C(O)C3CCOC(C)(C)C3)C2=O)c(C)c1 (stereo not shown) [Compound T38],pest or weed control at 250 g/ha,Lolium perenne (LOLPE) [1],70%
same,pest or weed control at 250 g/ha,[2],90%
same,pest or weed control at 250 g/ha,[3],100%
same,pest or weed control at 250 g/ha,Avena fatua (AVEFA) [4],40%
same,pest or weed control at 250 g/ha,Lolium perenne (LOLPE) [5],100%
same,pest or weed control at 250 g/ha,[6],100%
same,pest or weed control at 250 g/ha,[7],100%
same,pest or weed control at 250 g/ha,Avena fatua (AVEFA) [8],100%
CCC(=O)N1CCC(CC2CC(=O)C(c3c(C)cc(C)cc3C)C2=O)CC1 (stereo not shown) [Compound T83],pest or weed control at 250 g/ha,Lolium perenne (LOLPE) [1],90%
same,pest or weed control at 250 g/ha,[2],60%
same,pest or weed control at 250 g/ha,[3],90%
same,pest or weed control at 250 g/ha,Avena fatua (AVEFA) [4],70%
same,pest or weed control at 250 g/ha,Lolium perenne (LOLPE) [5],90%
same,pest or weed control at 250 g/ha,[6],80%
same,pest or weed control at 250 g/ha,[7],70%
same,pest or weed control at 250 g/ha,Avena fatua (AVEFA) [8],100%
Cc1cc(C)c(C2C(=O)CC(CC3CCN(C(=O)c4cccs4)C3)C2=O)c(C)c1 (stereo not shown) [Compound T146],pest or weed control at 250 g/ha,Lolium perenne (LOLPE) [1],90%
same,pest or weed control at 250 g/ha,[2],70%
same,pest or weed control at 250 g/ha,[3],70%
same,pest or weed control at 250 g/ha,Avena fatua (AVEFA) [4],50%
same,pest or weed control at 250 g/ha,Lolium perenne (LOLPE) [5],80%
same,pest or weed control at 250 g/ha,[6],80%
same,pest or weed control at 250 g/ha,[7],70%
same,pest or weed control at 250 g/ha,Avena fatua (AVEFA) [8],90%
Cc1cc(C)c(C2C(=O)CC(CC3OCCO3)C2=O)c(C)c1 (stereo not shown) [Compound T130],pest or weed control at 250 g/ha,Lolium perenne (LOLPE) [1],100%
same,pest or weed control at 250 g/ha,[2],70%
same,pest or weed control at 250 g/ha,[3],30%
same,pest or weed control at 250 g/ha,Avena fatua (AVEFA) [4],10%
same,pest or weed control at 250 g/ha,Lolium perenne (LOLPE) [5],90%
same,pest or weed control at 250 g/ha,[6],60%
same,pest or weed control at 250 g/ha,[7],60%
same,pest or weed control at 250 g/ha,Avena fatua (AVEFA) [8],70%
Cc1cc(C)c(C2C(=O)CC(CC3C[C@@H]4O[C@H]3[C@@H]3C(=O)N(C)C(=O)[C@@H]34)C2=O)c(C)c1 (stereo partly shown) [Compound T128],pest or weed control at 250 g/ha,Lolium perenne (LOLPE) [1],50%
same,pest or weed control at 250 g/ha,[2],70%
same,pest or weed control at 250 g/ha,[3],60%
same,pest or weed control at 250 g/ha,Avena fatua (AVEFA) [4],40%
same,pest or weed control at 250 g/ha,Lolium perenne (LOLPE) [5],50%
same,pest or weed control at 250 g/ha,[6],40%
same,pest or weed control at 250 g/ha,[7],50%
same,pest or weed control at 250 g/ha,Avena fatua (AVEFA) [8],90%
Cc1cc(-c2ccccc2F)cc(C)c1C1C(=O)CC(CC2CCOC2)C1=O (stereo not shown) [Compound T140],pest or weed control at 250 g/ha,Lolium perenne (LOLPE) [1],70%
same,pest or weed control at 250 g/ha,[2],60%
same,pest or weed control at 250 g/ha,[3],90%
same,pest or weed control at 250 g/ha,Avena fatua (AVEFA) [4],50%
same,pest or weed control at 250 g/ha,Lolium perenne (LOLPE) [5],90%
same,pest or weed control at 250 g/ha,[6],90%
same,pest or weed control at 250 g/ha,[7],90%
same,pest or weed control at 250 g/ha,Avena fatua (AVEFA) [8],60%
Cc1cc(C)c(C2C(=O)CC(CC3CCCO3)C2=O)c(C)c1 (stereo not shown) [Compound T18],pest or weed control at 250 g/ha,Lolium perenne (LOLPE) [1],100%
same,pest or weed control at 250 g/ha,[2],100%
same,pest or weed control at 250 g/ha,[3],100%
same,pest or weed control at 250 g/ha,Avena fatua (AVEFA) [4],70%
same,pest or weed control at 250 g/ha,Lolium perenne (LOLPE) [5],100%
same,pest or weed control at 250 g/ha,[6],80%
same,pest or weed control at 250 g/ha,[7],90%
same,pest or weed control at 250 g/ha,Avena fatua (AVEFA) [8],70%
Cc1cc(C)c(C2C(=O)CC(C)(C(O)C3CCOCC3)C2=O)c(C)c1 (stereo not shown) [Compound T27],pest or weed control at 250 g/ha,Lolium perenne (LOLPE) [1],100%
same,pest or weed control at 250 g/ha,[2],90%
same,pest or weed control at 250 g/ha,[3],80%
same,pest or weed control at 250 g/ha,Avena fatua (AVEFA) [4],60%
same,pest or weed control at 250 g/ha,Lolium perenne (LOLPE) [5],80%
same,pest or weed control at 250 g/ha,[6],70%
same,pest or weed control at 250 g/ha,[7],80%
same,pest or weed control at 250 g/ha,Avena fatua (AVEFA) [8],70%
